The record followed here is patent publication US7479561B2, “4-(2,4-dichloro-5-methoxyphenyl)amino-6-methoxy-7-{[5-substituted-amino)methyl]-3-furyl}-3-quinolinecarbonitriles as kinase inhibitors” (Wyeth, priority 2004, dated 2009).

Where “and” joins values, the source holds several entries; their conditions need not be identical. Equal values may be shown once.

For orientation: IC50 means the point on the concentration scale where inhibition reaches its midpoint.

T1 sequence (P12931 whole entry): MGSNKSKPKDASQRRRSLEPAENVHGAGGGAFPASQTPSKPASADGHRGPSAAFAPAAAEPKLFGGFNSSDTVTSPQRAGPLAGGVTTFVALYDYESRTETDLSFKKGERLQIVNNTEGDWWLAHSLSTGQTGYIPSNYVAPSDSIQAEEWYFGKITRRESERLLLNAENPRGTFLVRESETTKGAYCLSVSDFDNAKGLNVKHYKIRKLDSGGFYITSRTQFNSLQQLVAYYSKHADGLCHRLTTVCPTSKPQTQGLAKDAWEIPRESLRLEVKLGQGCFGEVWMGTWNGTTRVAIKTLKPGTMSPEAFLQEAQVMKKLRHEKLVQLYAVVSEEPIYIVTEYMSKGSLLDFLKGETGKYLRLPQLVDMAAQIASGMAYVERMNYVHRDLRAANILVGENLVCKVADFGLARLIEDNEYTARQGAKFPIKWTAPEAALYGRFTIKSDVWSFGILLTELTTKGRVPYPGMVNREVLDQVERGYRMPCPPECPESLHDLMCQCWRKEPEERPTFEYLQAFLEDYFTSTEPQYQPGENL

One assay concerns the target T1, Recombinant human Src enzyme (Homo sapiens, UniProt P12931).
T1 construct: purchased PanVera P3044
In words: Src Kinase Assay (LANCE FRET). It counts as biochemical. The following applies: 100 μM ATP; multiple entries = tested multiple times; read-out: Src enzyme IC50. As for the experimental part:
Recombinant human Src enzyme was obtained from PanVera (P3044). […] Homogeneous fluorescence resonance energy transfer kinase assays were performed using the europium/APC detection format (LANCE, Perkin Elmer). Src enzyme (10 ng) was mixed with biotinylated peptide (final concentration 2 μM), 50 mM Hepes (pH 7.5), 10 mM MgCl2, 20 ug/ml BSA, 0.001% Brij-35 (Sigma), 100 μM ATP, 1% DMSO. The kinase reaction was incubated for 70 min at 37° C. The reaction was stopped with EDTA at a final concentration of 30 mM EDTA/25 mM Hepes (pH 7.5)/10 μg/ml BSA. The mixture was combined with Eu-labeled anti-phosphotyrosine antibody PT66 (Perkin Elmer, AD0068) and Streptavidin Surelight-APC (Perkin Elmer, CR130-100) in 50 mM Hepes (pH 7.5)/20 μg/ml BSA, and incubated for 30 min according to manufacturer's specifications. […] Multiple entries for a given compound indicate that it was tested multiple times.
A general note: In TR-FRET formats the signal depends on donor and acceptor labels being close together.
In the case of `COc1cc(Nc2c(C#N)cnc3cc(-c4coc(CN5CCN(c6ccncc6)CC5)c4)c(OC)cc23)c(Cl)cc1Cl` [Example 21, 4-[(2,4-dichloro-5-methoxyphenyl)amino]-6-methoxy-7-[5-[(4-pyridin-4-ylpiperazin-1-yl)methyl]-3-furyl}quinoline-3-carbonitrile], the half-inhibitory concentration (IC50) was 2.2 nM and 1.9 nM.

In the case of `CCN(CC)CCCN1CCN(Cc2cc(-c3cc4ncc(C#N)c(Nc5cc(OC)c(Cl)cc5Cl)c4cc3OC)co2)CC1` [Example 33, 4-[(2,4-dichloro-5-methoxyphenyl)amino]-7-[5-({4-[3-(diethylamino)propyl]piperazin-1-yl}methyl)-3-furyl]-6-methoxyquinoline-3-carbonitrile], the IC50 was 2 nM.

As to `COc1cc(Nc2c(C#N)cnc3cc(-c4coc(CN5CCCC5)c4)c(OC)cc23)c(Cl)cc1Cl` [Example 6, 4-[(2,4-dichloro-5-methoxyphenyl)amino]-6-methoxy-7-[5-(pyrrolidin-1-ylmethyl)-3-furyl]quinoline-3-carbonitrile], the IC50 was 0.8 nM and 0.9 nM.

Turning to `COCCN(C)Cc1cc(-c2cc3ncc(C#N)c(Nc4cc(OC)c(Cl)cc4Cl)c3cc2OC)co1` [Example 32, 4-[(2,4-dichloro-5-methoxyphenyl)amino]-6-methoxy-7-(5-{[(2-methoxyethyl)(methyl)amino]methyl}-3-furyl)quinoline-3-carbonitrile], the 50% inhibitory concentration (IC50) is 2.9 nM and 2.6 nM.

As to `COc1cc(Nc2c(C#N)cnc3cc(-c4coc(CN5CCN(Cc6ccncc6)CC5)c4)c(OC)cc23)c(Cl)cc1Cl` [Example 34, 4-[(2,4-dichloro-5-methoxyphenyl)amino]-6-methoxy-7-(5-{[4-(pyridin-4-ylmethyl)piperazin-1-yl]methyl}-3-furyl)quinoline-3-carbonitrile], the IC50 was 2.5 nM and 3 nM.

With `CCCN(CCC)Cc1cc(-c2cc3ncc(C#N)c(Nc4cc(OC)c(Cl)cc4Cl)c3cc2OC)co1` [Example 16, 4-[(2,4-dichloro-5-methoxyphenyl)amino]-7-{5-[(dipropylamino)methyl]-3-furyl]-6-methoxyquinoline-3-carbonitrile], the IC50 was 10.2 nM and 6.5 nM.

For `COc1cc(Nc2c(C#N)cnc3cc(-c4coc(CN5CCCN(C)CC5)c4)c(OC)cc23)c(Cl)cc1Cl` [Example 29, 4-[(2,4-dichloro-5-methoxyphenyl)amino]-6-methoxy-7-{5-[(4-methyl-1,4-diazepan-1-yl)methyl]-3-furyl}quinoline-3-carbonitrile], the IC50 is 1.3 nM and 1 nM.

Consider `COc1cc(Nc2c(C#N)cnc3cc(-c4coc(CN5CCN(C6CCN(C)CC6)CC5)c4)c(OC)cc23)c(Cl)cc1Cl` [Example 10, 4-[(2,4-dichloro-5-methoxyphenyl)amino]-6-methoxy-7-(5-{[4-(1-methylpiperidin-4-yl)piperazin-1-yl]methyl}-3-furyl)quinoline-3-carbonitrile], for which the IC50 was determined as 0.5 nM.

Take `COc1cc(Nc2c(C#N)cnc3cc(-c4coc(CN5CCN(c6ccc(Cl)cc6)CC5)c4)c(OC)cc23)c(Cl)cc1Cl` [Example 23, 7-(5-{[4-(4-chlorophenyl)piperazin-1-yl]methyl}-3-furyl)-4-[(2,4-dichloro-5-methoxyphenyl)amino]-6-methoxyquinoline-3-carbonitrile]: the IC50 was 18.9 nM and 17 nM.

As for `COc1cc(Nc2c(C#N)cnc3cc(-c4coc(CN5CCN(c6ccc(C(F)(F)F)cc6)CC5)c4)c(OC)cc23)c(Cl)cc1Cl` [Example 25, 4-[(2,4-dichloro-5-methoxyphenyl)amino]-6-methoxy-7-[5-({4-[4-(trifluoromethyl)phenyl]piperazin-1-yl}methyl)-3-furyl]quinoline-3-carbonitrile], the half-maximal inhibitory concentration (IC50) is 14.1 nM and 14.4 nM.

With `COc1cc(Nc2c(C#N)cnc3cc(-c4coc(CN5CCSCC5)c4)c(OC)cc23)c(Cl)cc1Cl` [Example 26, 4-[(2,4-dichloro-5-methoxyphenyl)amino]-6-methoxy-7-[5-(thiomorpholin-4-ylmethyl)-3-furyl]quinoline-3-carbonitrile], the IC50 is 9.1 nM and 7.8 nM.

In the case of `COc1cc(Nc2c(C#N)cnc3cc(-c4coc(CN(C)CCN(C)C)c4)c(OC)cc23)c(Cl)cc1Cl` [Example 27, 4-[(2,4-dichloro-5-methoxyphenyl)amino]-7-(5-{[[2-(dimethylamino)ethyl](methyl)amino]methyl}-3-furyl)-6-methoxyquinoline-3-carbonitrile], the half-inhibitory concentration (IC50) was 3.2 nM and 2.5 nM.

Regarding `CCCCN1CCN(Cc2cc(-c3cc4ncc(C#N)c(Nc5cc(OC)c(Cl)cc5Cl)c4cc3OC)co2)CC1` [Example 12, 7-{5-[(4-butylpiperazin-1-yl)methyl]-3-furyl}-4-[(2,4-dichloro-5-methoxyphenyl)amino]-6-methoxyquinoline-3-carbonitrile], the 50% inhibitory concentration (IC50) was 2.5 nM and 2.1 nM.

On to `COc1cc(Nc2c(C#N)cnc3cc(-c4coc(CN5CCN(CCO)CC5)c4)c(OC)cc23)c(Cl)cc1Cl` [Example 31, 4-[(2,4-dichloro-5-methoxyphenyl)amino]-7-(5-{[4-(2-hydroxyethyl)piperazin-1-yl]methyl}-3-furyl)-6-methoxyquinoline-3-carbonitrile], for which the 50% inhibitory concentration (IC50) was 1.9 nM and 1.8 nM.

In the case of `COc1ccc(N2CCN(Cc3cc(-c4cc5ncc(C#N)c(Nc6cc(OC)c(Cl)cc6Cl)c5cc4OC)co3)CC2)cc1` [Example 20, 4-[(2,4-dichloro-5-methoxyphenyl)amino]-6-methoxy-7-(5-{[4-(4-methoxyphenyl)piperazin-1-yl]methyl}-3-furyl)quinoline-3-carbonitrile], the concentration for half-maximal inhibition (IC50) is 10 nM and 11.7 nM.

Regarding `COc1cc(Nc2c(C#N)cnc3cc(-c4coc(CN5CCS(=O)(=O)CC5)c4)c(OC)cc23)c(Cl)cc1Cl` [Example 17, 4-[(2,4-dichloro-5-methoxyphenyl)amino]-7-{5-[(1,1-dioxidothiomorpholin-4-yl)methyl]-3-furyl}-6-methoxyquinoline-3-carbonitrile], the IC50 was 2.4 nM and 2.1 nM.

As for `COc1cc(Nc2c(C#N)cnc3cc(-c4coc(CN5CCN(C(C)C)CC5)c4)c(OC)cc23)c(Cl)cc1Cl` [Example 28, 4-[(2,4-dichloro-5-methoxyphenyl)amino]-7-{5-[(4-isopropylpiperazin-1-yl)methyl]-3-furyl}-6-methoxyquinoline-3-carbonitrile], the IC50 was 1 nM and 0.7 nM.

In the case of `COc1cc(Nc2c(C#N)cnc3cc(-c4coc(CN5CCN(CCN6CCOCC6)CC5)c4)c(OC)cc23)c(Cl)cc1Cl` [Example 13, 4-[(2,4-dichloro-5-methoxyphenyl)amino]-6-methoxy-7-(5-{[4-(2-morpholin-4-ylethyl)piperazin-1-yl]methyl}-3-furyl)quinoline-3-carbonitrile], the IC50 was 1 nM.

On to `COCCN1CCN(Cc2cc(-c3cc4ncc(C#N)c(Nc5cc(OC)c(Cl)cc5Cl)c4cc3OC)co2)CC1` [Example 30, 4-[(2,4-dichloro-5-methoxyphenyl)amino]-6-methoxy-7-(5-{[4-(2-methoxyethyl)piperazin-1-yl]methyl}-3-furyl)quinoline-3-carbonitrile], for which the IC50 is 1.9 nM and 1.7 nM.

As to `COc1cc(Nc2c(C#N)cnc3cc(-c4coc(CN5CCN(Cc6ccccc6)CC5)c4)c(OC)cc23)c(Cl)cc1Cl` [Example 14, 7-{5-[(4-benzylpiperazin-1-yl)methyl]-3-furyl}-4-[(2,4-dichloro-5-methoxyphenyl)amino]-6-methoxyquinoline-3-carbonitrile], the IC50 was 33.7 nM and 56.2 nM.

Turning to `COc1cc(Nc2c(C#N)cnc3cc(-c4coc(CN5CCN(CCc6ccccc6)CC5)c4)c(OC)cc23)c(Cl)cc1Cl` [Example 15, 4-[(2,4-dichloro-5-methoxyphenyl)amino]-6-methoxy-7-(5-{[4-(2-phenylethyl)piperazin-1-yl]methyl}-3-furyl)quinoline-3-carbonitrile], the concentration for half-maximal inhibition (IC50) is 18.3 nM and 13.3 nM.

On to `COc1cc(Nc2c(C#N)cnc3cc(-c4coc(CN5CCN(C6CCCCC6)CC5)c4)c(OC)cc23)c(Cl)cc1Cl` [Example 19, 7-{5-[(4-cyclohexylpiperazin-1-yl)methyl]-3-furyl}-4-[(2,4-dichloro-5-methoxyphenyl)amino]-6-methoxyquinoline-3-carbonitrile], for which the half-inhibitory concentration (IC50) was 3.6 nM and 2.8 nM.

With `COc1cc(Nc2c(C#N)cnc3cc(-c4coc(CN5CCC(N6CCCC6)CC5)c4)c(OC)cc23)c(Cl)cc1Cl` [Example 11, 4-[(2,4-dichloro-5-methoxyphenyl)amino]-6-methoxy-7-{5-[(4-pyrrolidin-1-ylpiperidin-1-yl)methyl]-3-furyl}quinoline-3-carbonitrile], the concentration for half-maximal inhibition (IC50) is 1.1 nM and 1 nM.

On to `COc1cc(Nc2c(C#N)cnc3cc(-c4coc(CN5CC[S+]([O-])CC5)c4)c(OC)cc23)c(Cl)cc1Cl` [Example 18, 4-[(2,4-dichloro-5-methoxyphenyl)amino]-6-methoxy-7-{5-[(1-oxidothiomorpholin-4-yl)methyl]-3-furyl}quinoline-3-carbonitrile], for which the IC50 is 1.5 nM and 2.4 nM.

With `COc1cc(Nc2c(C#N)cnc3cc(-c4coc(CN5CCN(c6c(C)cccc6C)CC5)c4)c(OC)cc23)c(Cl)cc1Cl` [Example 35, 4-[(2,4-dichloro-5-methoxyphenyl)amino]-7-(5-{[4-(2,6-dimethylphenyl)piperazin-1-yl]methyl}-3-furyl)-6-methoxyquinoline-3-carbonitrile], the IC50 was 3.2 nM and 5.6 nM.

Still in this assay, the particulars now being: Src enzyme IC50, 100 μM ATP; multiple entries = tested multiple times.
Consider `COc1cc(Nc2c(C#N)cnc3cc(-c4coc(CN5CCCCC5)c4)c(OC)cc23)c(Cl)cc1Cl` [Example 7, 4-[(2,4-dichloro-5-methoxyphenyl)amino]-6-methoxy-7-[5-(piperidin-1-ylmethyl)-3-furyl]quinoline-3-carbonitrile], for which the concentration for half-maximal inhibition (IC50) was determined as 0.7 nM.
